# Measured values as given in patent US11957766B2, “HNQO1-activatable fluorescent probe for imaging cancer cells in-vitro and in-vivo” (Texas Tech University System, priority 2019, dated 2024).
# Experiments:
# [1] = test system: NQO1 in A549 cells; test: siRNA knockdown of NQO1 and NIR-ASM activation; type: cell-based, human; conditions: NQO1 expression silenced more than 70%, 60 min incubation, compared with the control
# Procedure: (§1) Chemical and genetic approaches confirm the specificity of NIR-ASM for NQO1 in live tumor cells. A fluorescence probe with high sensitivity, simple operation, and excellent specificity will be an asset for the detection of NQO1 in situ. To assess the substrate selectivity of NIR-ASM for NQO1, both A549 and H460 cells were pretreated with 100 nM of NQO1 inhibitor ES936 for 6 h, before incubating with 10 μM NIR-ASM. […] The effect of ES936 on endogenous NQO1 activity and subsequent reactivity with NIR-ASM was also determined by flow cytometry. […] The presence of NQO1 protein in the transfected MDA-MB-231 cells and its absence in the untransfected control was confirmed by immunoblotting (FIG. 13E). Subsequently, the NQO1-negative and positive MDA-MB-231 cell lines were incubated with NIR-ASM and analyzed by fluorescence microscopy and flow cytometry for activation of the probe.
# Knockdown of NQO1 by small interfering RNA (siRNA). NQO1 and scrambled or control siRNAs were introduced into cells using the X-tremeGENE siRNA transfection reagent (Roche) according to the manufacturer's instructions. 10 μl of transfection reagent was mixed with 80 pmol of siRNA and added to A549 cells in six-well plates. siRNA transfection efficiency was confirmed with Western blotting.
# [2] = test system: A549 and MDA-MB-231 tumors; test: In vivo imaging of NQO1-positive (A549) and -negative (MDA-MB-231) xenografts in the same animal with NIR-ASM; design: species or system nude mice; conditions: intravenous, tumors of 200 mm^3
# Procedure: Additionally, to validate the NQO1-specific activation of NIR-ASM to generate fluorescence, the inventors generated NQO1-positive (A549) and -negative (MDA-MB-231) xenografts in the same animal by injecting the corresponding tumor cells on the left and right flanks of the nude mice respectively. When tumors reached a volume of 200 mm^3, NIR-ASM was administered through intravenous injection and the animals were imaged using the In Vivo imager.
# In vivo bioimaging. The animal study protocol was approved by the Institutional Animal Use and Care Committee (IACUC), Texas Tech University Health Sciences Center, Protocol number: 07050. All experimental protocols used in this study were approved by IACUC, Texas Tech University Health Sciences Center and all the methods were carried out according to the committee guidelines. Female athymic nude mice (nu/nu, 4-6 weeks) were purchased from Charles River Laboratories (Wilmington, MA, USA). BALB/c57 mice were provided by Dr. Constantinos Mikelis of our University. To establish A549 or MDA-MB-231 xenografts, a total of 5×10^6 cells (in 0.1 ml of serum-free media and Matrigel (1:1)) were subcutaneously injected into the flanks of the mice. […] All animals were monitored for activity, physical condition, body weight, and tumor growth. […] Fluorescence represented in log values of radiance is photons per second per square centimeter per steradian.
# [3] = test system: human NQO1 transfected MDA-MB-231 cells; test: NIR-ASM in NQO1 gene transfected MDA-MB-231 cells; type: cell-based; conditions: microscopy and flow cytometry
# Procedure: as §1
# NQO1 plasmid transfection. Cells were seeded at 60% confluence in six-well plates 16 h before transfection with the desired plasmids. Transfections were carried using a plasmid expressing wild-type NQO1 (pCDNA3 NQO1-Flag, addgene, 61729) and X-tremeGENE DNA transfection reagent (Roche) according to manufacturer instructions. One μg DNA was used in each transfection and cell extracts were prepared 24 h post-transfection to confirm NQO1 protein expression by Western blotting.
# [4] = test system: IMR90, HUVEC cells; test: Fluorescence microscopy of NIR-ASM in NQO1 non-expressing normal cells; type: cell-based, human; conditions: 10 μM, 60 min
# Procedure: Detection of NQO1 in live cells. Inspired by the excellent biocompatibility, the inventors investigated its performance in both NQO1 expressing cancer cells (A549, H460) and NQO1 non-expressing normal cells (IMR90, HUVEC). All cells were incubated with NIR-ASM (10 μM) for 60 min, washed with PBS and were imaged under a confocal microscope after counterstaining the nuclei with Hoechst 33342 (FIG. 12A). […] The higher expression of NQO1 protein in A549 and H460 cells and its absence in normal cells, IMR90 and HUVEC as found with western blot analysis correlated with the probe reactivity in cells (FIG. 12B). […] Cell sorting using flow cytometry is a well-established technology in clinical diagnostics and biomedical research. To assess the applicability of the NIR-ASM to rapidly detect and quantify in both cancer and normal cells based on NQO1 expression, the probe was incubated with cell suspensions for 60 min, and about 1×10^4 cells were analyzed on a flow cytometer.
# Fluorescence imaging. Both cancer and normal cells were seeded into 6-well plates and cultured overnight in respective media at 37° C. Cells were treated with 10 μM NIR-ASM and incubated at 37° C. for 60 min. They were then treated with nuclear stain Hoechst 33342 for 5 min. Finally, the medium was replaced with PBS and the live cells were imaged using a multiphoton confocal fluorescence microscope (λex/em=488/644 nm). […]
# [5] = target: NQO1 (Homo sapiens, UniProt P15559); test: Kinetics of NQO1 towards NIR-ASM (Michaelis-Menten); type: biochemical; design: purchased Sigma-Aldrich D1515; conditions: NQO1 2 μg/mL, NADH 100 μM
# Sequence of NQO1 (P15559 whole entry): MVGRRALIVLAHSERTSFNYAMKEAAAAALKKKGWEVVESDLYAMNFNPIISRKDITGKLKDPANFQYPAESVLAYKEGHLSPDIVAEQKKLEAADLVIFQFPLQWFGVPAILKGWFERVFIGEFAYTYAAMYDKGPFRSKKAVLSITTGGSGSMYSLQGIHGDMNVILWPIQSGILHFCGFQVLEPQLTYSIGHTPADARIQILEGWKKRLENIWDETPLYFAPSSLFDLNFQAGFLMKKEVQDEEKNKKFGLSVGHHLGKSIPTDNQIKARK
# Procedure: Next, the kinetics of fluorescent product formation was assessed. […] From this experiment, the initial rate of ASM formation, V (μmol min^−1 μg NQO1^−1), was calculated and then plotted as a function of NIR-ASM concentration (FIG. 10C).
# Kinetic studies. Kinetic studies were performed using a microplate reader under philological conditions (PBS with 0.1% of BSA at 37° C.). The assay buffer contained 2 μg/mL of NQO1, 100 μM NADH and different concentrations of NIR-ASM (0-100 μM) in a total volume of 100 μL. Time-dependent fluorescence measurements were carried out to monitor the release of ASM by NQO1 activation of NIR-ASM (λex/em 460/646), and the data were collected every minute for 90 minutes. This assay was repeated two times in triplicate and the fluorescence readings were optimized to a standard curve of ASM of known concentration and calculated the velocity in terms of μmol^−1 min^−1 μg NQO1. A plot of the velocities and NIR-ASM concentration was used to obtaining the apparent kinetic parameters Km and Vmax from nonlinear regression analysis and Michaelis-Menton constant using the GraphPad Prism.
structure (smiles),measurement,setting,value
"CC1=C(C)C(=O)C(C(C)(C)CC(=O)Nc2ccc(/C=C/C3=CC(=C(C#N)C#N)CC(C)(C)C3)cc2)=C(C)C1=O [NIR-ASM, (E)-N-(4-(2-(3-(dicyanomethylene)-5,5-dimethylcyclohex-1-en-1-yl)vinyl)phenyl)-3-methyl-3-(2,4,5-trimethyl-3,6-dioxocyclohexa-1,4-dien-1-yl)butanamide]",NIR-ASM fluorescence after siRNA silencing of NQO1,[1],almost a total loss
same,"fluorescence signal, NQO1-positive A549 tumor",[2],observed only from the A549 tumor
same,"fluorescence signal, NQO1 negative MDAMB-231 tumors",[2],no signal was discernible
same,fluorescence after NQO1 gene transfection,[3],intense fluorescence
same,fluorescence signal in normal cells,[4],did not show any fluorescence
same,maximum velocity (Vmax),[5],0.00419±0.00003 μmol min^−1 mg NQO1^−1
